From patent publication US20260048101A1, “GLP-1R ANTAGONISM TO IMPROVE NUTRITION FOLLOWING GASTROINTESTINAL SURGERY” (Amylyx Pharmaceuticals, Inc., priority 2023, published 2026)

Tested on: Patient 2 (total gastrectomy, severe hypoglycemia events)
Experiment: Patient 2 case history: prior pharmacotherapy
Format: in vivo, human
Conditions: Patient 2, before trial participation
Description: The patient had been placed on a liquid diet for 6 weeks after surgery and had initially lost 20 lbs. but otherwise fared well in the immediate postoperative period. […] The meals caused pain, gastrointestinal symptoms, and frequent diarrhea (per patient report). The patient also complained of weakness, lethargy and general feeling of despondency. […] They began to experience severe hypoglycemia events, including multiple episodes of loss of consciousness with requirement for emergency medical assistance. […] The patient was referred for trial participation.

- gastrointestinal symptoms: worsening of gastrointestinal symptoms
Compound: C[C@H]1O[C@H](O[C@H]2[C@H](O)[C@@H](O)[C@@H](O[C@H]3[C@H](O)[C@@H](O)C(O)O[C@@H]3CO)O[C@@H]2CO)[C@H](O)[C@@H](O)[C@@H]1N[C@H]1C=C(CO)[C@@H](O)[C@H](O)[C@H]1O (stereo partly shown) [acarbose]
